Data published in patent publication US20120316199A1, “COMPOSITIONS AND METHODS FOR TREATING, CONTROLLING, REDUCING, OR AMELIORATING INFLAMMATORY PAIN” (priority 2011, published 2012).
Entries after “also recorded” stand apart in the source; their conditions may differ.

Assays:
[1] = test system: COX-2; test: COX-2 protein in IL-1β-induced human conjunctival fibroblasts (Western blot); assay type: cell-based; settings: pretreated 2 h, then IL-1β 24 h; Western blot normalized to GAPDH (FIG. 7)
Protocol: Cells were washed with ice-cold PBS and lysed in cell lysis buffer (62.5 mM Tris-HCl, pH 6.8, 2% sodium dodecyl sulfate (SDS), 10% glycerol). Cells were sonicated, and centrifuged at 12,000 rpm and protein concentration was determined using the Micro BCA protein assay kit. Proteins in aliquots of cell lysate (˜20 μg protein) were separated by SDS-polyacrylamide electrophoresis (SDS-PAGE) on 10% gels and transferred to PVDF membranes. Membranes were blocked with 5% BSA and exposed to mouse anti-COX-2 antibody (Caymen). The blots were washed, and exposed to horseradish peroxidase-conjugated anti-mouse secondary antibody. After washing, blots were incubated in ECL (enhanced chemiluminescence) solutions and chemiluminescent bands were visualized using the Fluor Chem imaging system (AlphaInnotech, San Leandro, Calif.). Blots were then stripped and re-probed for glyceraldehyde 3-phosphate dehydrogenase (GAPDH) (Zymed) antibody as loading controls. The experiment was repeated 3 times. Analysis of Western blot band density for COX-2 and GAPDH in captured digital images was done using the Alpha-Innotech Chemi-Imager software (Alpha Innotech; San Leandro, Calif.). Levels of COX-2 protein were normalized to GAPDH.

[2] = test system: intraocular pressure (IOP); test: Intraocular pressure in New Zealand White rabbits, topical dosing four times daily; assay type: in vivo; settings: for Intraocular Pressure, MEAN: A.M. readings
Protocol: On Days 1-31, animals received daily topical doses of the appropriate test article into the right eye. Animals were dosed four times per day, with doses administered 2 hours apart. Doses were administered using a calibrated 50-μL pipette. The eyelids were held close for 10 seconds immediately following dosing. The time of each dose administration was recorded.
Intraocular pressure (“IOP”) was determined for both eyes of each animal on Days 3, 5, 10, 12, 16, 18, 22, 24, 26, 30, and 32. IOP was evaluated with a Medtronic Solan, Model 30 classic pneumatonometer. Proparacaine hydrochloride 0.5% (1 drop) was delivered to each eye prior to IOP measurement. IOP was measured on Monday. Wednesday, and Friday of each week. A two-point diurnal curve was established: IOP was recorded at 8 a.m. and 12 p.m. on Day 3, and at 8 a.m. and 2 p.m. on later days, with a ±1 hour range for each of these times. The time of the measurements was recorded.
Descriptive statistics were prepared for IOP data of each treatment group (left and right eyes separately) at each measurement interval. The statistics included the number of observations (“N”) mean, standard deviation (“STD”), and standard error (“SEM”). Statistical analyses were conducted on IOP results using Statistical Analysis Systems (SAS Institute. Inc., Cary, N.C. V8.0). Parameters were evaluated using analysis of variance/GLM Procedure followed by Tukey's Standardized Range Test (Tukey, 1985) for post hoc comparisons of group means. The level of significance was set at a probability of p<0.05 for all statistical procedures. Group IOP means were compared at each interval, with left and right eyes compared separately.

Cc1ccc2c(NC[C@](O)(CC(C)(C)c3cc(F)cc4c3OCC4)C(F)(F)F)cccc2n1 [BOL-303242-X, mapracorat]
Inhibition of COX-2 production by IL-1β-induced HConF [1]: inhibition of COX-2 production; also recorded: successfully inhibits | Differences in mean IOP versus BSS group ([2]; BOL-303242-X groups B-D (10, 5, 1 mg/g), p<0.05): No statistically significant (p<0.05) differences | Effect of daily dosing on IOP compared to daily dosing with dexamethasone ([2]; BOL-303242-X suspensions 0.05, 0.25, 0.5 mg/dose, four times daily up to 31 days): did not increase IOP | Course of mean IOP after treatment began ([2]; left and right eyes, dexamethasone 0.1% (Group A), BOL-303242-X 10, 5, 1 mg/g (Groups B-D), four times daily): not seen | Intraocular Pressure, MEAN ([2]; treated right eyes, Day 3, 1 mg/g (Group D)): 23.0 mmHg | Intraocular Pressure, MEAN ([2]; treated right eyes, Day 3, 5 mg/g (Group C)): 23.7 mmHg | Intraocular Pressure, MEAN ([2]; treated right eyes, Day 3, 10 mg/g (Group B)): 22.7 mmHg | Intraocular Pressure, MEAN ([2]; treated right eyes, Day 5, 1 mg/g (Group D)): 24.7 mmHg | Intraocular Pressure, MEAN ([2]; treated right eyes, Day 5, 5 mg/g (Group C)): 24.7 mmHg | Intraocular Pressure, MEAN ([2]; treated right eyes, Day 5, 10 mg/g (Group B)): 23.8 mmHg | Intraocular Pressure, MEAN ([2]; treated right eyes, Day 10, 1 mg/g (Group D)): 24.8 mmHg | Intraocular Pressure, MEAN ([2]; treated right eyes, Day 10, 5 mg/g (Group C)): 25.2 mmHg | Intraocular Pressure, MEAN ([2]; treated right eyes, Day 10, 10 mg/g (Group B)): 24.5 mmHg | Intraocular Pressure, MEAN ([2]; treated right eyes, Day 12, 1 mg/g (Group D)): 23.4 mmHg | Intraocular Pressure, MEAN ([2]; treated right eyes, Day 12, 5 mg/g (Group C)): 25.0 mmHg | Intraocular Pressure, MEAN ([2]; treated right eyes, Day 12, 10 mg/g (Group B)): 23.9 mmHg | Intraocular Pressure, MEAN ([2]; treated right eyes, Day 16, 1 mg/g (Group D)): 22.1 mmHg | Intraocular Pressure, MEAN ([2]; treated right eyes, Day 16, 5 mg/g (Group C)): 24.3 mmHg | Intraocular Pressure, MEAN ([2]; treated right eyes, Day 16, 10 mg/g (Group B)): 23.4 mmHg | Intraocular Pressure, MEAN ([2]; treated right eyes, Day 18, 1 mg/g (Group D)): 23.7 mmHg | Intraocular Pressure, MEAN ([2]; treated right eyes, Day 18, 5 mg/g (Group C)): 23.9 mmHg | Intraocular Pressure, MEAN ([2]; treated right eyes, Day 18, 10 mg/g (Group B)): 22.3 mmHg | Intraocular Pressure, MEAN ([2]; treated right eyes, Day 22, 1 mg/g (Group D)): 23.2 mmHg | Intraocular Pressure, MEAN ([2]; treated right eyes, Day 22, 5 mg/g (Group C)): 22.4 mmHg | Intraocular Pressure, MEAN ([2]; treated right eyes, Day 22, 10 mg/g (Group B)): 22.4 mmHg | Intraocular Pressure, MEAN ([2]; treated right eyes, Day 24, 1 mg/g (Group D)): 22.1 mmHg | Intraocular Pressure, MEAN ([2]; treated right eyes, Day 24, 5 mg/g (Group C)): 23.8 mmHg | Intraocular Pressure, MEAN ([2]; treated right eyes, Day 24, 10 mg/g (Group B)): 21.2 mmHg | Intraocular Pressure, MEAN ([2]; treated right eyes, Day 26, 1 mg/g (Group D)): 23.1 mmHg | Intraocular Pressure, MEAN ([2]; treated right eyes, Day 26, 5 mg/g (Group C)): 22.1 mmHg | Intraocular Pressure, MEAN ([2]; treated right eyes, Day 26, 10 mg/g (Group B)): 21.8 mmHg | Intraocular Pressure, MEAN ([2]; treated right eyes, Day 30, 1 mg/g (Group D)): 24.2 mmHg | Intraocular Pressure, MEAN ([2]; treated right eyes, Day 30, 5 mg/g (Group C)): 22.9 mmHg | Intraocular Pressure, MEAN ([2]; treated right eyes, Day 30, 10 mg/g (Group B)): 22.7 mmHg | Intraocular Pressure, MEAN ([2]; treated right eyes, Day 32, 1 mg/g (Group D)): 24.9 mmHg | Intraocular Pressure, MEAN ([2]; treated right eyes, Day 32, 5 mg/g (Group C)): 23.4 mmHg | Intraocular Pressure, MEAN ([2]; treated right eyes, Day 32, 10 mg/g (Group B)): 23.9 mmHg | Intraocular Pressure, MEAN ([2]; treated right eyes, Pre-Study, 1 mg/g (Group D)): 24.4 mmHg | Intraocular Pressure, MEAN ([2]; treated right eyes, Pre-Study, 5 mg/g (Group C)): 24.8 mmHg | Intraocular Pressure, MEAN ([2]; treated right eyes, Pre-Study, 10 mg/g (Group B)): 24.0 mmHg | Intraocular Pressure, MEAN ([2]; untreated left eyes, Day 3, 1 mg/g (Group D)): 23.5 mmHg | Intraocular Pressure, MEAN ([2]; untreated left eyes, Day 3, 5 mg/g (Group C)): 23.8 mmHg | Intraocular Pressure, MEAN ([2]; untreated left eyes, Day 3, 10 mg/g (Group B)): 23.3 mmHg | Intraocular Pressure, MEAN ([2]; untreated left eyes, Day 5, 1 mg/g (Group D)): 24.4 mmHg | Intraocular Pressure, MEAN ([2]; untreated left eyes, Day 5, 5 mg/g (Group C)): 24.4 mmHg | Intraocular Pressure, MEAN ([2]; untreated left eyes, Day 5, 10 mg/g (Group B)): 23.4 mmHg | Intraocular Pressure, MEAN ([2]; untreated left eyes, Day 10, 1 mg/g (Group D)): 24.5 mmHg | Intraocular Pressure, MEAN ([2]; untreated left eyes, Day 10, 5 mg/g (Group C)): 24.6 mmHg | Intraocular Pressure, MEAN ([2]; untreated left eyes, Day 10, 10 mg/g (Group B)): 24.0 mmHg | Intraocular Pressure, MEAN ([2]; untreated left eyes, Day 12, 1 mg/g (Group D)): 22.2 mmHg | Intraocular Pressure, MEAN ([2]; untreated left eyes, Day 12, 5 mg/g (Group C)): 23.8 mmHg | Intraocular Pressure, MEAN ([2]; untreated left eyes, Day 12, 10 mg/g (Group B)): 23.8 mmHg
